Laboratory results from patent US20210322508A1, “PEPTIDES AND COMPOSITIONS FOR TARGETED TREATMENT AND IMAGING” (SIGNABLOK, INC., priority 2018, published 2021).
Residues, ends and D or L forms follow the SMILES beside them.

What was measured:
[1] = test system: AsPC-1, BxPC-3 and Capan-1 xenograft tumors; assay: Human PC xenograft mouse models: tumor growth, survival, tolerability; type: in vivo; conditions: free peptides i.p. once daily 5 days per week at indicated doses
Method: (§1) Mice were monitored daily and tumor measurements were taken along the length and width using Vernier calipers twice weekly until sacrifice. Tumor volumes were calculated using a modified ellipsoidal formula: (Length×Width^2)/2.
Results are expressed as the mean±SEM.
as §1
Mice were monitored daily and tumor measurements were taken along the length and width using Vernier calipers twice weekly until sacrifice.

[2] = test system: LPS-stimulated J774A.1 macrophages (TNF-alpha, IL-6, IL-1beta); assay: In vitro cytokine release by LPS-stimulated macrophages; type: cell-based, mouse; conditions: 10 ng/ml after pre-incubation with HDL; LPS 1 μg/ml, 24 h
Method: (§2) The BALB/c murine macrophage cell line J774A.1 (ATCC TIB-67) were obtained from the American Type Culture Collection (ATCC, Manassas, Va.). Macrophages were cultured in 48-well plates (Corning, Cambridge, Mass.) for 24 h at 37° C. in the presence of LPS (1 μg/ml, Escherichia coli 055:B5, Sigma) in combination with 10 ng/ml peptides either pre-incubated or not with HDL. Cell-free supernatants were harvested and stored at −20° C. for later cytokine quantification. TNF-alpha, IL-6, and IL-1beta were assayed using commercial ELISA kits (Pierce Biotechnology, Thermo Scientific, Rockford, Ill.) according to the recommendations of the manufacturer. Results were represented as the mean±S.D. of three independent experiments. Statistical significances in in vitro macrophage uptake assay were determined by two-tailed Student's t test.
as §2, with “Macrophages were cultured in 48-well plates (Corning, Cambridge, Mass.) for 24 h at 37° C. in the presence of LPS (1 μg/ml, Escherichia coli 055:B5, Sigma) in combination with 10 ng/ml peptides either pre-incubated or not with HDL.” left out

LPS-challenged mice = assay: cytokine production in LPS-challenged mice; type: in vivo; conditions: treated 1 h before LPS challenge
Method: Control peptide represents an equimolar mixture of two peptides, each of them comprising two amino acid domains A and B where domain A represents a non-functional 9 amino acids-long sequence of the TREM-1 inhibitory therapeutic peptide sequence wherein, Lys5 is substituted with Ala5, whereas domain B is a sulfoxidized methionine residue-containing 22 amino acids-long apolipoprotein A-I helix 4 or 6 peptide sequence, respectively. *, P=0.01 to 0.05 as compared with animals treated with 5 mg/kg TRIOPEP in free form; ***, P=0.0001 to 0.001 as compared with PBS-treated animals.

[3] = test system: C57BL/6J neonatal mice with oxygen-induced retinopathy; assay: Oxygen-induced retinopathy (OIR): pathological retinal neovascularization; type: in vivo
Method: Litters of C57BL/6J (Jackson Laboratory, Bar Harbor, Me.) neonatal mice and nursing dams were exposed to a hyperoxia environment (75% oxygen) from postnatal day 7 (P7) to P12 and returned to normoxia until P17. The hyperoxia exposure causes degeneration of the immature retinal vessels. […] Beginning on P7, mice were treated until day P17 by daily i.p. injections of GF9, GF9-SLP, TREM-1/TRIOPEP-sSLP or vehicle (phosphate-buffered saline, pH 7.4; PBS). […] In another subset of experiments, rho B-labeled Gd-containing sSLP were used to confirm the ability of these targeted SLP to cross the BRB in other species (rats and rabbits). In another subset of experiments, neonatal mice and nursing dams were not subjected to a hyperoxia environment and reared in room air (RA). […]
Treatment effects on vaso-obliteration and pathological angiogenesis were assessed by morphometric analysis of the avascular and neovascularization areas in retinal flat mounts after labeling with isolectin B4 as described in Patel, et al. Am J Pathol 2014, 184:3040-3051. […] After washing 3 times with PBS, the images were captured with a 20× lens using a Zeiss Axioplan2 fluorescence microscope (Carl Zeiss Meditec, Inc., Dublin, Calif.). Intravitreal neovascular formation and avascular area were measured as described in Connor, et al. Nat Protoc 2009, 4:1565-1573. […]

[4] = penetration of the blood-brain and blood-retinal barrier after systemic administration; type: in vivo; conditions: rhodamine B-labeled; mice intraperitoneally; rats and rabbits intravenously (G-KV21)
[5] = comparison of therapies (cancer indications); conditions: shown for cancer indications
[6] = test system: human pancreatic cancer xenografts (cancer mice); conditions: mouse, in vivo
Method: Treatment persisted for 31, 29 and 29 days for mice containing AsPC-1, BxPC-3 and Capan-1 tumor xenografts, respectively. Mean tumor volumes are calculated and plotted. All results are expressed as the mean±SEM (n=6 mice per group). On the final day of treatment, tumor volumes were compared between the drug-treated and control groups. **, p<0.01; ***, p<0.001; ****, p<0.0001 (versus vehicle).

CC(C)C[C@H](NC(=O)[C@H](Cc1ccccc1)NC(=O)CN)C(=O)N[C@@H](CO)C(=O)N[C@@H](CCCCN)C(=O)N[C@@H](CO)C(=O)N[C@@H](CC(C)C)C(=O)N[C@H](C(=O)N[C@@H](Cc1ccccc1)C(=O)NCC(=O)N[C@@H](CCC(=O)O)C(=O)N[C@@H](CCC(=O)O)C(=O)N[C@@H](CC[S+](C)[O-])C(=O)N[C@@H](CCCNC(=N)N)C(=O)N[C@@H](CC(=O)O)C(=O)N[C@@H](CCCNC(=N)N)C(=O)N[C@@H](C)C(=O)N[C@@H](CCCNC(=N)N)C(=O)N[C@@H](C)C(=O)N[C@@H](Cc1c[nH]cn1)C(=O)N[C@H](C(=O)O)C(C)C)C(C)C (some centres unmarked) [G-HV21] (HELM PEPTIDE1{G.F.L.S.K.S.L.V.F.G.E.E.[CS(=O)CC[C@H](N[*:1])C(=O)[*:2]].R.D.R.A.R.A.H.V}$$$$V2.0)
tumor growth [1]: inhibit tumor growth in three human PC xenograft mouse models
production of cytokines by LPS-stimulated macrophages [2]: inhibit production of cytokines by LPS-stimulated macrophages
TNF-alpha, IL-6 and IL-1beta production in mice at 90 min post LPS challenge (LPS-challenged mice): significantly inhibit the LPS-induced cytokine release

CC(C)C[C@H](NC(=O)[C@H](Cc1ccccc1)NC(=O)CN)C(=O)N[C@@H](CO)C(=O)N[C@@H](CCCCN)C(=O)N[C@@H](CO)C(=O)N[C@@H](CC(C)C)C(=O)N[C@H](C(=O)N[C@@H](Cc1ccccc1)C(=O)N[C@@H](Cc1c[nH]c2ccccc12)C(=O)N[C@@H](CCC(N)=O)C(=O)N[C@@H](CCC(=O)O)C(=O)N[C@@H](CCC(=O)O)C(=O)N[C@@H](CC[S+](C)[O-])C(=O)N[C@@H](CCC(=O)O)C(=O)N[C@@H](CC(C)C)C(=O)N[C@@H](Cc1ccc(O)cc1)C(=O)N[C@@H](CCCNC(=N)N)C(=O)N[C@@H](CCC(N)=O)C(=O)N[C@@H](CCCCN)C(=O)N[C@H](C(=O)O)C(C)C)C(C)C (some centres unmarked) [G-KV21] (HELM PEPTIDE1{G.F.L.S.K.S.L.V.F.W.Q.E.E.[CS(=O)CC[C@H](N[*:1])C(=O)[*:2]].E.L.Y.R.Q.K.V}$$$$V2.0)
tumor growth [1]: inhibit tumor growth in three human PC xenograft mouse models
production of cytokines by LPS-stimulated macrophages [2]: inhibit production of cytokines by LPS-stimulated macrophages
reduction of pathological RNV ([3]; free peptides, daily i.p. P7-P17 at indicated doses): up to 95%
TNF-alpha, IL-6 and IL-1beta production in mice at 90 min post LPS challenge (LPS-challenged mice): significantly inhibit the LPS-induced cytokine release
penetration of the BBB and BRB [4]: penetration of the BBB and BRB

CC(C)C[C@H](NC(=O)[C@H](Cc1ccccc1)NC(=O)CN)C(=O)N[C@@H](CO)C(=O)N[C@@H](CCCCN)C(=O)N[C@@H](CO)C(=O)N[C@@H](CC(C)C)C(=O)N[C@H](C(=O)N[C@@H](Cc1ccccc1)C(=O)O)C(C)C [GF9] (H-GFLSKSLVF-OH)
toxicity / tolerability in mouse litters ([3]; mouse, in vivo): non-toxic and well-tolerated in mouse litters
Acute toxicity [5]: LOW
tolerability in cancer mice [6]: Non-Toxic
